Drawing on patent US9018414B2, “Substituted 3-phenylpropionic acids and the use thereof” (Bayer Intellectual Property GmbH, priority 2009, dated 2015), this text covers minimal effective concentration for 22 compounds.

This assay has as its system recombinant guanylate cyclase reporter cell line. As to the kind of experiment: Action at recombinant guanylate cyclase reporter cell line (CHO reporter cell). In kind it is cell-based. The settings on record: MEC = minimal effective concentration; read-out: sGC-activating activity in the CHO reporter cell in vitro, MEC. The method, then:
The cellular action of the compounds according to the invention is determined at a recombinant guanylate cyclase reporter cell line, as described in F. Wunder et al., Anal. Biochem. 339, 104-112 (2005).
On to `C[C@H]([C@H](C(=O)Nc1cc(CCC(=O)O)ccc1Cl)c1ccc(CC(F)(F)F)cc1)C(F)(F)F` (racemic) [Example 5, 3-[4-Chloro-3-({4,4,4-trifluoro-3-methyl-2-[4-(2,2,2-trifluoroethyl)phenyl]butanoyl}amino)phenyl]-propanoic acid], for which the minimal effective concentration was 0.003 µM. Take `C[C@H]([C@H](C(=O)Nc1cc(C2CC2C(=O)O)ccc1F)c1ccc(Cl)cc1)C(F)(F)F` (single isomer, unassigned) [Example 53]: the minimal effective concentration stood at 0.3 µM. Consider `CCC[C@@H](CC(=O)O)c1ccc(Cl)c(NC(=O)[C@H](c2ccc(Cl)cc2)[C@@H](C)C(F)(F)F)c1` (single isomer, unassigned) [Example 82], for which the minimal effective concentration was 0.00023 µM. The same measure for `C[C@H]([C@H](C(=O)Nc1cc([C@H](CC(=O)O)C(F)(F)F)ccc1Cl)c1ccc(Cl)cc1)C(F)(F)F` (single isomer, unassigned) [Example 84]: 0.001 µM; for `CC[C@@H](CC(=O)O)c1ccc(Cl)c(NC(=O)[C@H](c2ccc(Cl)cc2)[C@@H](C)C(F)(F)F)c1` (single isomer, unassigned) [Example 87]: 0.001 µM. Turning to `C[C@@H](Cc1ccc(Cl)c(NC(=O)C(c2ccc(Cl)cc2)C2CCC(F)(F)C2)c1)C(=O)O` (single isomer, unassigned) [Example 105], the minimal effective concentration amounted to 0.03 µM.

As for `CCC(C)(Cc1ccc(Cl)c(NC(=O)[C@H](c2ccc(Cl)cc2)[C@@H](C)C(F)(F)F)c1)C(=O)O` (single isomer, unassigned; (+)) [Example 71], the minimal effective concentration is 0.01 µM.

Regarding `C[C@H]([C@H](C(=O)Nc1cc(CCC(=O)O)ccc1Cl)c1ccc(C(C)(C)C)cc1)C(F)(F)F` [Example 2, (+)-3-(3-{[(2S,3R)-2-(4-tert-butylphenyl)-4,4,4-trifluoro-3-methylbutanoyl]amino}-4-chlorophenyl)-propanoic acid], the minimal effective concentration amounted to 0.0003 µM. Turning to `CCc1ccc([C@@H](C(=O)Nc2cc(C(C)CC(=O)O)ccc2Cl)[C@@H](C)C(F)(F)F)cc1` (stereo partly drawn) [Example 7, 3-(4-chloro-3-{[(2S,3R)-2-(4-ethylphenyl)-4,4,4-tri-fluoro-3-methylbutanoyl]amino}phenyl)butanoic acid], the minimal effective concentration was found to be 0.0002 µM. `C[C@@H](CC(=O)O)c1ccc(Cl)c(NC(=O)C(c2ccc(Cl)cc2)C2CCCC2(F)F)c1` (stereo partly drawn) [Example 10, (3S)-3-(4-chloro-3-{[(4-chlorophenyl)(2,2-difluoro-cyclopentyl)acetyl]amino}phenyl)butanoic acid]: the minimal effective concentration was 0.0052 µM. The same measure for `C[C@H]([C@H](C(=O)Nc1cc(C2(CC(=O)O)CC2)ccc1F)c1ccc(Cl)cc1)C(F)(F)F` [Example 18, (+)-[1-(3-{[(2S,3R)-2-(4-Chlorophenyl)-4,4,4-trifluoro-3-methylbutanoyl]amino}-4-fluorophenyl)-cyclopropyl]acetic acid]: 0.01 µM; for `C[C@H](C(C(=O)Nc1cc(C2(CC(=O)O)CCC2)ccc1Cl)c1ccc(Cl)cc1)C(F)(F)F` (stereo partly drawn) [Example 28, [1-(4-Chloro-3-{[(3R)-2-(4-chlorophenyl)-4,4,4-trifluoro-3-methylbutanoyl]amino}-phenyl)cyclobutyl]acetic acid]: 0.001 µM; for `CC[C@@H](Cc1ccc(Cl)c(NC(=O)[C@H](c2ccc(Cl)cc2)[C@@H](C)C(F)(F)F)c1)C(=O)O` [Example 30, (+)-(2S)-2-(4-Chloro-3-{[(2S,3R)-2-(4-chlorophenyl)-4,4,4-trifluoro-3-methylbutanoyl]amino}-benzyl)butanoic acid]: 0.0003 µM. `CC(Cc1ccc(F)c(NC(=O)C(c2ccc(Cl)cc2)[C@@H](C)C(F)(F)F)c1)C(=O)O` (stereo partly drawn) [Example 37, 3-(3-{[(3R)-2-(4-Chlorophenyl)-4,4,4-trifluoro-3-methylbutanoyl]amino}-4-fluorophenyl)-2-methylpropanoic acid]: the minimal effective concentration worked out at 0.01 µM. The same measure for `CC(C(=O)O)C(C)c1ccc(F)c(NC(=O)[C@H](c2ccc(Cl)cc2)[C@@H](C)C(F)(F)F)c1` (stereo partly drawn) [Example 50, threo-3-(3-{[(2S,3R)-2-(4-chlorophenyl)-4,4,4-tri-fluoro-3-methylbutanoyl]amino}-4-fluorophenyl)-2-methylbutanoic acid]: 0.03 µM; for `CCCC(CC(=O)O)c1ccc(Cl)c(NC(=O)[C@H](c2ccc(Cl)cc2)[C@@H](C)C(F)(F)F)c1` (stereo partly drawn) [Example 81, 3-(4-Chloro-3-{[(2S,3R)-2-(4-chlorophenyl)-4,4,4-trifluoro-3-methylbutanoyl]amino}phenyl)-hexanoic acid]: 0.0003 µM. `C[C@H]([C@H](C(=O)Nc1cc(CC(C)(C)C(=O)O)ccc1Cl)c1ccc(Cl)cc1)C(F)(F)F` [Example 89]: the minimal effective concentration came to 0.003 µM. As for `C[C@H]([C@H](C(=O)Nc1cc(C2(CC(=O)O)CCC2)ccc1Cl)c1ccc(Cl)cc1)C(F)(F)F` [Example 90], the minimal effective concentration was determined as 0.001 µM.

Regarding `C[C@H]([C@H](C(=O)Nc1cc(C2(CC(=O)O)CC2)ccc1Cl)c1ccc(Cl)cc1)C(F)(F)F` [Example 96], the minimal effective concentration came out at 0.001 µM. The result for `CC(C(C(=O)Nc1cc(C[C@H](C)C(=O)O)ccc1Cl)c1ccc(CC(F)(F)F)cc1)C(F)(F)F` (stereo partly shown) [Example 99] reads 0.01 µM; that for `C[C@H]([C@H](C(=O)Nc1cc(C[C@H](C)C(=O)O)ccc1Cl)c1ccc(C2CC(F)(F)C2)cc1)C(F)(F)F` [Example 100], 0.003 µM; that for `C[C@H]([C@H](C(=O)Nc1cc(C2(CC(=O)O)CC(F)(F)C2)ccc1Cl)c1ccc(Cl)cc1)C(F)(F)F` [Example 102], 0.001 µM.
